Holding throughout (test): Post-emergence test experiment (greenhouse pot, spray at 2-3 leaf stage)
Holding throughout (type): in vivo
Conditions in all cases: 1000 g/ha; post-emergence spray at 2-3 leaf stage; assessed after 3 weeks; fresh weight inhibition rate

Test [1] deals with Digitaria sanguinalis. In outline:
(§1)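 Weed seeds sown in soil-filled pots in greenhouse, sprayed at 2-3 leaf stage (2 weeks after sowing) with compound in acetone/tween-80 plus methyl oleate emulsible concentrate (1.5 L/ha) diluted in water. Fresh-weight growth inhibition scored after 3 weeks on 0-5 scale (5: >85%, 0: <5%).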

In test [2] the test system is Echinochloa crusgalli. In outline:
as §1

Test [3] deals with Galium spurium. In outline:
as §1

Test [4] deals with Monochoria vaginalis. In outline: as §1
In test [5] the test system is Abutilon theophrasti. In outline: as §1

Consider `CC(Oc1nc(F)c(Cl)c(N)c1Cl)C(=O)SCCc1ncsn1` (stereo not drawn) [Compound 165], for which the “Activity level (growth inhibition rate) Digitaria sanguinalis” value in test [1] is given as 5 (Level 5: the growth inhibition rate is greater than 85%). In test [2], the “Activity level (growth inhibition rate) Echinochloa crusgalli” value was 5 (Level 5: the growth inhibition rate is greater than 85%). The “Activity level (growth inhibition rate) Galium spurium” value in test [3] was 5 (Level 5: the growth inhibition rate is greater than 85%). Also, in test [4], the “Activity level (growth inhibition rate) Monochoria Vaginalis” value is 5 (Level 5: the growth inhibition rate is greater than 85%). In test [5], the “Activity level (growth inhibition rate) Abutilon theophrasti” value is on record as 5 (Level 5: the growth inhibition rate is greater than 85%).

`CC(Oc1nc(F)c(Cl)c(N)c1Cl)C(=O)SCc1ccccn1` (stereo not drawn) [Compound 235]: the “Activity level (growth inhibition rate) Digitaria sanguinalis” value in test [1] was 5 (Level 5: the growth inhibition rate is greater than 85%). Besides, the “Activity level (growth inhibition rate) Echinochloa crusgalli” value in test [2] is recorded as 5 (Level 5: the growth inhibition rate is greater than 85%). The “Activity level (growth inhibition rate) Galium spurium” value in test [3] was 5 (Level 5: the growth inhibition rate is greater than 85%). Also, the “Activity level (growth inhibition rate) Monochoria Vaginalis” value in test [4] is 5 (Level 5: the growth inhibition rate is greater than 85%). For the same molecule, the “Activity level (growth inhibition rate) Abutilon theophrasti” value in test [5] is reported as 5 (Level 5: the growth inhibition rate is greater than 85%).

For the molecule `CC(Oc1nc(F)c(Cl)c(N)c1Cl)C(=O)OCc1conn1` (stereo not drawn) [Compound 153], the “Activity level (growth inhibition rate) Digitaria sanguinalis” value in test [1] is 5 (Level 5: the growth inhibition rate is greater than 85%). In addition, the “Activity level (growth inhibition rate) Echinochloa crusgalli” value in test [2] is reported as 5 (Level 5: the growth inhibition rate is greater than 85%). The “Activity level (growth inhibition rate) Galium spurium” value in test [3] is 5 (Level 5: the growth inhibition rate is greater than 85%). For the same molecule, in test [4], the “Activity level (growth inhibition rate) Monochoria Vaginalis” value is reported as 5 (Level 5: the growth inhibition rate is greater than 85%). For the same molecule, in test [5], the “Activity level (growth inhibition rate) Abutilon theophrasti” value is on record as 5 (Level 5: the growth inhibition rate is greater than 85%).

As to `CC(Oc1nc(F)c(Cl)c(N)c1Cl)C(=O)OCc1ccccc1C#N` (stereo not drawn) [Compound 200], the “Activity level (growth inhibition rate) Digitaria sanguinalis” value in test [1] is given as 5 (Level 5: the growth inhibition rate is greater than 85%). Further, in test [2], the “Activity level (growth inhibition rate) Echinochloa crusgalli” value is recorded as 5 (Level 5: the growth inhibition rate is greater than 85%). In test [3], the “Activity level (growth inhibition rate) Galium spurium” value was 5 (Level 5: the growth inhibition rate is greater than 85%). In addition, in test [4], the “Activity level (growth inhibition rate) Monochoria Vaginalis” value is given as 5 (Level 5: the growth inhibition rate is greater than 85%). Also, in test [5], the “Activity level (growth inhibition rate) Abutilon theophrasti” value is recorded as 5 (Level 5: the growth inhibition rate is greater than 85%).

In the case of `CC(Oc1nc(F)c(Cl)c(N)c1Cl)C(=O)SCc1csnn1` (stereo not drawn) [Compound 168], in test [1], the “Activity level (growth inhibition rate) Digitaria sanguinalis” value is 5 (Level 5: the growth inhibition rate is greater than 85%). Moreover, the “Activity level (growth inhibition rate) Echinochloa crusgalli” value in test [2] is 5 (Level 5: the growth inhibition rate is greater than 85%). Besides, in test [3], the “Activity level (growth inhibition rate) Galium spurium” value is listed as 5 (Level 5: the growth inhibition rate is greater than 85%). Also, the “Activity level (growth inhibition rate) Monochoria Vaginalis” value in test [4] is on record as 5 (Level 5: the growth inhibition rate is greater than 85%). Further, the “Activity level (growth inhibition rate) Abutilon theophrasti” value in test [5] is 5 (Level 5: the growth inhibition rate is greater than 85%).

Regarding `CC(Oc1nc(F)c(Cl)c(N)c1Cl)C(=O)OCc1ccco1` (stereo not drawn) [Compound 212], the “Activity level (growth inhibition rate) Digitaria sanguinalis” value in test [1] is on record as 5 (Level 5: the growth inhibition rate is greater than 85%). Further, in test [2], the “Activity level (growth inhibition rate) Echinochloa crusgalli” value is given as 5 (Level 5: the growth inhibition rate is greater than 85%). Besides, the “Activity level (growth inhibition rate) Galium spurium” value in test [3] was 5 (Level 5: the growth inhibition rate is greater than 85%). Further, the “Activity level (growth inhibition rate) Monochoria Vaginalis” value in test [4] is recorded as 5 (Level 5: the growth inhibition rate is greater than 85%). The “Activity level (growth inhibition rate) Abutilon theophrasti” value in test [5] is listed as 5 (Level 5: the growth inhibition rate is greater than 85%).

Take `CCCn1cc(CCOC(=O)C(C)Oc2nc(F)c(Cl)c(N)c2Cl)cn1` (stereo not drawn) [Compound 133]: the “Activity level (growth inhibition rate) Digitaria sanguinalis” value in test [1] is reported as 5 (Level 5: the growth inhibition rate is greater than 85%). Further, the “Activity level (growth inhibition rate) Echinochloa crusgalli” value in test [2] is 5 (Level 5: the growth inhibition rate is greater than 85%). Moreover, the “Activity level (growth inhibition rate) Galium spurium” value in test [3] is 5 (Level 5: the growth inhibition rate is greater than 85%). For the same molecule, in test [4], the “Activity level (growth inhibition rate) Monochoria Vaginalis” value was 5 (Level 5: the growth inhibition rate is greater than 85%). Moreover, the “Activity level (growth inhibition rate) Abutilon theophrasti” value in test [5] was 5 (Level 5: the growth inhibition rate is greater than 85%).

In the case of `CC(Oc1nc(F)c(Cl)c(N)c1Cl)C(=O)SCc1ccc(C(F)(F)F)cc1` (stereo not drawn) [Compound 234], the “Activity level (growth inhibition rate) Digitaria sanguinalis” value in test [1] is reported as 5 (Level 5: the growth inhibition rate is greater than 85%). The “Activity level (growth inhibition rate) Echinochloa crusgalli” value in test [2] was 5 (Level 5: the growth inhibition rate is greater than 85%). For the same molecule, the “Activity level (growth inhibition rate) Galium spurium” value in test [3] was 5 (Level 5: the growth inhibition rate is greater than 85%). Moreover, in test [4], the “Activity level (growth inhibition rate) Monochoria Vaginalis” value was 5 (Level 5: the growth inhibition rate is greater than 85%). In addition, the “Activity level (growth inhibition rate) Abutilon theophrasti” value in test [5] is on record as 5 (Level 5: the growth inhibition rate is greater than 85%).

On to `CC(Oc1nc(F)c(Cl)c(N)c1Cl)C(=O)OCCc1cnn[nH]1` (stereo not drawn) [Compound 135], for which the “Activity level (growth inhibition rate) Digitaria sanguinalis” value in test [1] is on record as 5 (Level 5: the growth inhibition rate is greater than 85%). Also, the “Activity level (growth inhibition rate) Echinochloa crusgalli” value in test [2] is on record as 5 (Level 5: the growth inhibition rate is greater than 85%). The “Activity level (growth inhibition rate) Galium spurium” value in test [3] is 5 (Level 5: the growth inhibition rate is greater than 85%). The “Activity level (growth inhibition rate) Monochoria Vaginalis” value in test [4] is 5 (Level 5: the growth inhibition rate is greater than 85%). Moreover, the “Activity level (growth inhibition rate) Abutilon theophrasti” value in test [5] is reported as 5 (Level 5: the growth inhibition rate is greater than 85%).

Consider `CC(Oc1nc(F)c(C(F)(F)F)c(N)c1Cl)C(=O)OCc1ccccc1` (stereo not drawn) [Compound 15], for which the “Activity level (growth inhibition rate) Digitaria sanguinalis” value in test [1] is reported as 5 (Level 5: the growth inhibition rate is greater than 85%). Moreover, the “Activity level (growth inhibition rate) Echinochloa crusgalli” value in test [2] is reported as 5 (Level 5: the growth inhibition rate is greater than 85%). Moreover, in test [3], the “Activity level (growth inhibition rate) Galium spurium” value is on record as 5 (Level 5: the growth inhibition rate is greater than 85%). Besides, in test [4], the “Activity level (growth inhibition rate) Monochoria Vaginalis” value is reported as 5 (Level 5: the growth inhibition rate is greater than 85%). Also, the “Activity level (growth inhibition rate) Abutilon theophrasti” value in test [5] is given as 5 (Level 5: the growth inhibition rate is greater than 85%).

For `CC(Oc1nc(F)c(Cl)c(N)c1Cl)C(=O)SCc1ccc(Br)cc1` (stereo not drawn) [Compound 231], the “Activity level (growth inhibition rate) Digitaria sanguinalis” value in test [1] was 5 (Level 5: the growth inhibition rate is greater than 85%). In addition, in test [2], the “Activity level (growth inhibition rate) Echinochloa crusgalli” value is on record as 5 (Level 5: the growth inhibition rate is greater than 85%). Besides, the “Activity level (growth inhibition rate) Galium spurium” value in test [3] is 5 (Level 5: the growth inhibition rate is greater than 85%). Further, in test [4], the “Activity level (growth inhibition rate) Monochoria Vaginalis” value is on record as 5 (Level 5: the growth inhibition rate is greater than 85%). The “Activity level (growth inhibition rate) Abutilon theophrasti” value in test [5] is listed as 5 (Level 5: the growth inhibition rate is greater than 85%).

Consider `CC(Oc1nc(F)c(Cl)c(N)c1Cl)C(=O)OCc1ccc(C2CC2)cc1` (stereo not drawn) [Compound 74], for which, in test [1], the “Activity level (growth inhibition rate) Digitaria sanguinalis” value is listed as 5 (Level 5: the growth inhibition rate is greater than 85%). In test [2], the “Activity level (growth inhibition rate) Echinochloa crusgalli” value is listed as 5 (Level 5: the growth inhibition rate is greater than 85%). For the same molecule, the “Activity level (growth inhibition rate) Galium spurium” value in test [3] was 5 (Level 5: the growth inhibition rate is greater than 85%). Further, the “Activity level (growth inhibition rate) Monochoria Vaginalis” value in test [4] is recorded as 5 (Level 5: the growth inhibition rate is greater than 85%). Further, the “Activity level (growth inhibition rate) Abutilon theophrasti” value in test [5] was 5 (Level 5: the growth inhibition rate is greater than 85%).

On to `CC(Oc1nc(F)c(Cl)c(N)c1Cl)C(=O)OCc1cccc(Br)c1` (stereo not drawn) [Compound 206], for which the “Activity level (growth inhibition rate) Digitaria sanguinalis” value in test [1] was 5 (Level 5: the growth inhibition rate is greater than 85%). In addition, the “Activity level (growth inhibition rate) Echinochloa crusgalli” value in test [2] is 5 (Level 5: the growth inhibition rate is greater than 85%). The “Activity level (growth inhibition rate) Galium spurium” value in test [3] is on record as 5 (Level 5: the growth inhibition rate is greater than 85%). The “Activity level (growth inhibition rate) Monochoria Vaginalis” value in test [4] was 5 (Level 5: the growth inhibition rate is greater than 85%). For the same molecule, in test [5], the “Activity level (growth inhibition rate) Abutilon theophrasti” value is given as 5 (Level 5: the growth inhibition rate is greater than 85%).

Take `CC(Oc1nc(F)c(Cl)c(N)c1Cl)C(=O)OCc1ccc2ccccc2c1` (stereo not drawn) [Compound 181]: the “Activity level (growth inhibition rate) Digitaria sanguinalis” value in test [1] was 5 (Level 5: the growth inhibition rate is greater than 85%). Further, the “Activity level (growth inhibition rate) Echinochloa crusgalli” value in test [2] is 5 (Level 5: the growth inhibition rate is greater than 85%). In addition, the “Activity level (growth inhibition rate) Galium spurium” value in test [3] is reported as 5 (Level 5: the growth inhibition rate is greater than 85%). The “Activity level (growth inhibition rate) Monochoria Vaginalis” value in test [4] was 5 (Level 5: the growth inhibition rate is greater than 85%). Moreover, the “Activity level (growth inhibition rate) Abutilon theophrasti” value in test [5] is 5 (Level 5: the growth inhibition rate is greater than 85%).

As to `CC(Oc1nc(F)c(Cl)c(N)c1Cl)C(=O)OCc1cc2ccccc2o1` (stereo not drawn) [Compound 173], the “Activity level (growth inhibition rate) Digitaria sanguinalis” value in test [1] is 5 (Level 5: the growth inhibition rate is greater than 85%). The “Activity level (growth inhibition rate) Echinochloa crusgalli” value in test [2] is 5 (Level 5: the growth inhibition rate is greater than 85%). For the same molecule, the “Activity level (growth inhibition rate) Galium spurium” value in test [3] is recorded as 5 (Level 5: the growth inhibition rate is greater than 85%). For the same molecule, the “Activity level (growth inhibition rate) Monochoria Vaginalis” value in test [4] is listed as 5 (Level 5: the growth inhibition rate is greater than 85%). Besides, the “Activity level (growth inhibition rate) Abutilon theophrasti” value in test [5] was 5 (Level 5: the growth inhibition rate is greater than 85%).

The values above are taken from US12049450B2, “Pyridyloxy-carboxylate derivative and preparation method therefor, herbicidal composition, and use” (Qingdao Kingagroot Chemical Compound Co., Ltd., priority 2018, dated 2024).
